Data set [1] in a line: Serum total calcium measurement in mice (Arsenazo III). Type of data set: in vivo. The conditions noted are these: after treatment i.p. days 2-4 (LSN2148936 0.005 mg/kg, PhotoVDRM 0.5 mg/kg), 420 or 520 nm.
Data set [2] deals with T1, VDR-LBD (Homo sapiens, UniProt P11473).
T1 construct: VDR-LBD protein stock solution was prepared in 20 mM HEPES buffer
T1 sequence (P11473 127-423 limits assumed): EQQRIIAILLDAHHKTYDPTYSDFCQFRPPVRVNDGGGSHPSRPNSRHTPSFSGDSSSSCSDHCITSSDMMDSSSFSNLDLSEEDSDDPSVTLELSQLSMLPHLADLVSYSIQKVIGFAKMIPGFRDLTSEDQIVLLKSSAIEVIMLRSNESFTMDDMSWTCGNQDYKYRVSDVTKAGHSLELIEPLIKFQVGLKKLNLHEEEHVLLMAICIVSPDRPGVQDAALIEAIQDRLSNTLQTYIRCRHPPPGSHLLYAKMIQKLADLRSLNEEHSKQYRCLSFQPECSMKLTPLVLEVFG
As to the kind of experiment: HDX-MS of VDR-LBD with ligand in the dark and under 365 nm light. Type of data set: binding. The procedure:
Although previously used to study the effect of a cyclic azopeptide in its activated cis state, here we studied the target dynamics upon direct application of the light to the sample. To this aim, HDX-MS was applied for the characterization of the binding mode and modulation of receptor dynamics of the racemic compound PhotoVDRM. VDR-LBD was incubated alone (to provide an apo control for each experiment) or with an excess of compound PhotoVDRM and exposed to deuterium labeling for various periods of time, from 10 s to 2 h, in the dark and illuminated with light at 365 nm. […] As an additional control experiment, we also evaluated the HDX-MS of VDR-LBD in the presence and absence of a standard agonist, compound LSN2148936, in the dark and under illumination conditions. […] In order to permit direct comparison, including mathematical manipulation of the data in all these experiments, the observed deuterium incorporation percentages were converted to rate constants (expressed as −log10(k)) using our previously published Bayesian approach.
(Perkin Elmer, now Revvity, Cat.No. 6006290) in duplicate. Immediately, 54 µL of the protein solution were added and the plate was covered and incubated for 30 min at room temperature in the dark. Meanwhile, the plate with the 10X dilutions was illuminated at 365 nm for 3 min in a 96-well DED array plate (LEDA Teleopto), to allow the photoconversion of the molecules to their cis configuration. The illuminated compounds were mixed with the protein solution and incubated as described above for the plate in the dark. After the incubation time, the counts of both, the dark and illuminated plates, were measured in a Tecan Spark 20M Multimode plate reader with defined settings (excitation: 680 nm, emission: 520-620 nm, excitation time: 100ms, integration time: 300 ms). Biotinylated-His6 peptide (PerkinElmer) was used as a quality control reagent for AlphaScreen® assays and to evaluate compound interaction with the method. […] Dose-response curves and EC50 values were calculated with Graphpad software. […]

Data set [3] is described as follows: Photoisomerization quantum yield (MATLAB regression). Type of data set: physicochemical. The procedure:
The UV–vis absorbance spectra of all molecules were measured in the dark and after the application of light of different wavelengths ranging from 365 to 770 nm (Figure A and Figures S1–S3). […] Consequently, violet/UV light below 405 nm efficiently promoted photoisomerization, which produced a dramatic decrease in the π-π* band and a significant increase in the n-π* band at around 445 nm (Table ). […] The proportion of molecules at the PSS in trans isomer upon constant illumination with light at 525 nm and cis at 365 nm was in general above 50%, reaching a remarkable >99% for compound 11d (Table and Figures S4 and S5). […] The greater stability of the trans isomer was consistent with previous quantum mechanical and molecular mechanics predictions. Measuring the photoisomerization properties of compound PhotoVDRM allowed us to determine the photoisomerization quantum yields of the compound by solving a differential equation for photoisomerization. We used MATLAB to perform regression and arrive at the following photoisomerization quantum yields: ϕ365 nm (trans) = 0.0427, ϕ365 nm (cis) = 0.0501, ϕ470 nm (trans) = 0.1857, and ϕ470 nm (cis) = 0.2281 (Figure S9). Compound PhotoVDRM was also evaluated in aqueous buffer used for pharmacological experiments (0.5% DMSO) showing a thermal relaxation of 3 h, almost 7 times faster than in pure DMSO (Figure B). […] A deeper photocharacterization of PhotoVDRM allowed us to measure the kinetics of photoconversion upon constant illumination with two wavelengths and three light intensities (Figure D and Figure S10). […] Indeed, with LED devices producing light at intensities as low as 0.05 mW/mm^2 we were able to transform trans to cis in around 15.5 s. This time was reduced to 6 and 2 s when the light intensity was increased to 0.15 and 0.75 mW/mm^2. […] Therefore, we proceeded to test the ability of the chemical library to activate the VDR under different light conditions.

SMILES strings stand for the structures. “Also recorded” adds a separate entry of the source.

On to `Cc1cc(OCC(O)C(C)(C)C)ccc1N=Nc1cccc(-c2ccc(C(=O)O)cc2)c1` (stereo not shown) [Compound 11b], for which the “effect on calcium homeostasis (serum total calcium)” value in data set [1] is given as “null impact; also recorded: without concomitant hypercalcemia”. Besides, the “protection to H/D exchange” value in data set [2] (in the dark, vs under light) was “much lower”; in data set [2] (under 365 nm light, vs reference agonist LSN2148936), “comparable”. Further, the “photoisomerization quantum yield ϕ365 nm (cis)” value in data set [3] (365 nm, cis) is recorded as 0.0501. Moreover, the “photoisomerization quantum yield ϕ365 nm (trans)” value in data set [3] (365 nm, trans) is given as 0.0427. For the same compound, the “photoisomerization quantum yield ϕ470 nm (cis)” value in data set [3] (470 nm, cis) is reported as 0.2281. The “photoisomerization quantum yield ϕ470 nm (trans)” value in data set [3] (470 nm, trans) worked out at 0.1857.

Source of the values: PMC12746157, “Light-Regulated Agonists Spatiotemporally Activating the Vitamin D Receptor Mitigate Psoriasis-like Inflammation in Mice without Inducing Hypercalcemia” (ACS Central Science, 2025).
